Reference: patent US11236055B2 (Venenum Biodesign, LLC, priority 2016, dated 2022)
Like-named read-outs stand apart in the source and are kept apart here. One block for each compound: values may come before it.

Columns and labels:
[1] = Absorption vs. first pass metabolism: Cmax with and without 1-aminobenzotriazole (ABT) pre-treatment; format: in vivo, mouse; details: ICR, mouse, plasma; lean mice receiving ABT (150 mg/kg) 2 h before compound, 10 mg/kg oral
Method: Absorption Vs. First Pass Metabolism
In this study, the absorption was examined as compared to first pass metabolism of the compounds of the present invention. ICR mice (Hilltop) were pre-treated with 1-aminobenzotriazole (ABT), a nonselective inhibitor of cytochrome P450 enzymes to inhibit Cyp450-mediated degradation of the compounds in liver.
ABT was administered at 150 mg/kg in 5 mL/kg of 0.04% ethanol in 0.5% methyl cellulose (w/v) by oral gavage, 2 hours prior to test compound administration. The compounds 20AA and 20AC were administered by oral gavage at 10 mg/kg in 10 mL/kg of 20% PEG400/80% (0.5% (w/v) CMC containing 0.25% (v/v) Tween 80) (v/v), 2 hours after the ABT treatment. Blood was collected via orbital bleeding at predose, 0.25, 0.5, 1, 2, and 4 hours post-dose and the quantification of compound levels in plasma was accomplished by means of LC-MS/MS analysis as described in Example 59. Reference compound “Propranolol” that is known to be metabolized by Cyp450 was used as a positive control.
FIG. 4 depicts the Cmax (nM) of the compounds of the present invention with and without ABT pre-treatment.

[2] = Comparison of PK in DIO mice and lean mice; format: in vivo, mouse; details: for Cmax / Tmax / AUC(0-t): mouse, plasma, po; for AUC(0-t): read-out: AUC (0-4 h)
Method: Comparison of PK in DIO Mice and Lean Mice
The PK characteristics of Compound 20AA were examined in non-fasted lean C57BL/6N and DIO mice (Taconic). Compound 20AA was orally administered to both groups at 10 mg/kg by oral gavage and plasma concentration of the compound was determined as described in Example 59.
In addition, PK parameters were determined for Compound 20AA (i.e., Cmax, Tmax and AUC) following oral administration in four groups of mice: (i) fasted lean mice; (ii) non-fasted lean mice; (iii) non-fasted DIO mice; and (iv) lean mice receiving ABT.

mouse TGR5 receptor = biological target: T1, mouse TGR5 receptor (Mus musculus, UniProt Q80SS6); assay: Mouse TGR5 cAMP production assay (luminescent, DiscoveRx cAMP XS+); format: cell-based; details: HEK293-EBNA cells overexpressing mouse TGR5, luminescent cAMP XS+; coded A-D; read-out: Mouse TGR5 Lum. cAMP Activity (EC50)
T1 construct: expressed in transfected cells; host or cells: HEK293-EBNA (293 c18, ATCC CRL10852), Hygromycin B selection
T1 sequence (Q80SS6 1-329): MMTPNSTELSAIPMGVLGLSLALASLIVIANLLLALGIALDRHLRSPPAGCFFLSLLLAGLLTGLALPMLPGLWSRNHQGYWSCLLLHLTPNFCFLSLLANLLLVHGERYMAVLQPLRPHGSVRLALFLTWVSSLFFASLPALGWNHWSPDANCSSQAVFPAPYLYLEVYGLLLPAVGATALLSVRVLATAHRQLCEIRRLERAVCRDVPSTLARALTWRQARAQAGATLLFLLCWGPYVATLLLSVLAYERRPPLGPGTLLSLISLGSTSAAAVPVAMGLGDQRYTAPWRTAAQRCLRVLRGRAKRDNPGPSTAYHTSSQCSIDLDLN
Procedure, shortened: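 HEK293-EBNA cells stably expressing mouse TGR5 were suspended in serum-free DMEM with 500 μM IBMX and preincubated 20 min with cAMP antibody. They were then exposed to half-log compound dilutions for 1 h at room temperature. cAMP measured by enzyme-fragment complementation luminescence after overnight incubation; EC50 derived.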

[3] = Bile weight after multiple days of dosing in DIO mice; format: in vivo, mouse; details: 12 days of dosing, about 6 h after final dose
Method: No Bile Weight Increase after Multiple Days of Dosing Compounds
Compounds of the present invention were dosed for multiple days and evaluated for an increase in bile weight within the gallbladder. In this example, the protocol from Example 66 was utilized. In week 2 of the study, mice were euthanized and bile was removed from the gallbladder about 6 hours after the final dose and the bile was weighed to approximate the volume of bile contained within the bladder.

[4] = C57BL/6N, 10 mg/kg, DIO mice, non-fasted, 10 mpk
[5] = C57BL/6N, 10 mg/kg, Lean mice, non-fasted, 10 mpk
[6] = C57BL/6N, 10 mg/kg, Non-fasted DIO mice, 10 mg/kg oral
[7] = C57BL/6N, 10 mg/kg, Non-fasted Lean mice, 10 mg/kg oral
[8] = Fasted Lean mice, oral administration

Cmax [1]: 2.6 nM | Tmax [1]: 0.25 h | Cmax [2, 4]: 1.7 nM | Tmax [2, 4]: 1 h | Cmax [2, 5]: 3 nM | Tmax [2, 5]: 1 h | Cmax [2, 6]: 1.7 nM | Tmax [2, 6]: 1 h | AUC(0-t) [2, 6]: 7.6 ng·h/mL | Cmax [2, 7]: 3 nM | Tmax [2, 7]: 0.25 h | AUC(0-t) [2, 7]: 4 ng·h/mL | PK profile (Cmax, Tmax, AUC) ([2]; lean and DIO mice, fasted or non-fasted, oral administration): low PK profile | Cmax [2, 8]: 7.2 nM | Tmax [2, 8]: 1 h | AUC(0-t) [2, 8]: 26 ng·h/mL
Structure (SMILES): Cc1cnccc1-c1cccc(C(C)(C)N(CCCC(=O)NCCS(=O)(=O)O)S(=O)(=O)c2ccccc2C(F)(F)F)c1 [Compound 20AA, 2-(4-(N-(2-(3-(3-methylpyridin-4-yl)phenyl)propan-2-yl)-2-(trifluoromethyl)phenylsulfonamido)butanamido)ethanesulfonic acid]

EC50 (mouse TGR5 receptor): < 100 nM
Structure (SMILES): CCc1cnccc1-c1cccc(C(C)(C)NS(=O)(=O)c2ccccc2C(F)(F)F)c1 [Compound 5, N-(2-(3-(3-ethylpyridin-4-yl)phenyl)propan-2-yl)-2-(trifluoromethyl)benzenesulfonamide]

bile weight / gallbladder size [3]: does not show an increase
Structure (SMILES): CCc1cnccc1-c1cccc([C@H](C)N(CCCC(=O)NCCS(=O)(=O)NCC(=O)O)S(=O)(=O)c2ccccc2C(F)(F)F)c1 [Compound 20BG]

EC50 (mouse TGR5 receptor): < 100 nM
Structure (SMILES): Cc1cnccc1-c1cccc(C(C)(C)NS(=O)(=O)c2cccc(C(F)(F)F)c2)c1 [Compound 5AA, N-(2-(3-(3-methylpyridin-4-yl)phenyl)propan-2-yl)-3-(trifluoromethyl)benzenesulfonamide]
